# Earlier results as cited in patent US20250214981A1, “COMPOUND AND APPLICATION THEREOF IN PREPARATION OF MEDICINE FOR TREATING ENTEROVIRUS-RELATED DISEASES” (priority 2022, published 2025).
# How the values were obtained:
# [1] = system: human rhinovirus serotypes
# [2] = system: mammalian cysteine and serine proteases, including cathepsin B, elastase, chymotrypsin, trypsin, thrombin, and calpain
# [3] = in vivo
smiles,measurement,setting,value
CCOC(=O)/C=C/[C@H](C[C@@H]1CCNC1=O)NC(=O)[C@@H](CC(=O)[C@@H](NC(=O)c1cc(C)on1)C(C)C)Cc1ccc(F)cc1 [AG7088],antiviral activity against a variety of human rhinovirus serotypes,[1],significant antiviral activity
same,inhibitory activity against mammalian cysteine and serine proteases,[2],negligible inhibitory activity
same,bioavailability,[3],low bioavailability
